Measured values taken from PubChem BioAssay (NCI).
Several values for one entry are separate records, joined by “and”; a condition that tells them apart may be missing. Identical values can stand only once.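 1) Cells in 96-well plates. 2) Compound, 48 h, 5 concentrations. 3) Linear interpolation between surrounding doses. 4) Unreached endpoint = highest concentration. The concentration for 50% growth inhibition is given as GI50. Definition used: TGI = concentration required for complete inhibition of growth.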

What was measured:
Assay in all cases: growth of human tumour cells (NCI), 48 h
UO-31 renal = tested on: UO-31 renal
OVCAR-5 ovarian = tested on: OVCAR-5 ovarian
SF-268 CNS = tested on: SF-268 CNS
SW-620 colon = tested on: SW-620 colon
786-0 renal = tested on: 786-0 renal
SN12C renal = tested on: SN12C renal
HOP-92 NSCLC = tested on: HOP-92 NSCLC
UACC-62 melanoma = tested on: UACC-62 melanoma
HOP-62 NSCLC = tested on: HOP-62 NSCLC
MALME-3M melanoma = tested on: MALME-3M melanoma

SMILES	GI50 (UO-31 renal)	TGI (UO-31 renal)	GI50 (OVCAR-5 ovarian)	TGI (OVCAR-5 ovarian)	GI50 (SF-268 CNS)	TGI (SF-268 CNS)	GI50 (SW-620 colon)	TGI (SW-620 colon)	GI50 (786-0 renal)	TGI (786-0 renal)	GI50 (SN12C renal)	TGI (SN12C renal)	GI50 (HOP-92 NSCLC)	TGI (HOP-92 NSCLC)	GI50 (UACC-62 melanoma)	TGI (UACC-62 melanoma)	GI50 (HOP-62 NSCLC)	TGI (HOP-62 NSCLC)	GI50 (MALME-3M melanoma)	TGI (MALME-3M melanoma)
O=C(Nc1ccc(F)cc1)c1ccc(NC2=C(Cl)C(=O)N(Cc3ccccc3)C2=O)cc1	10.5 µM	23.4 µM	9.15 µM	27.1 µM	4.4 µM	23.6 µM	4.54 µM	> 100 µM	10.5 µM	22.9 µM	4.12 µM	16.4 µM	5.23 µM	19.1 µM	18.1 µM	38.5 µM				
COc1ccc2c(c1)/C(=C\c1cccnc1)C(=O)N2	25.9 µM	> 100 µM	24.3 µM	78.5 µM	12.9 µM	37 µM	41 µM	> 100 µM	18.3 µM	45.7 µM	7.38 µM	29.4 µM	26.6 µM	69.7 µM			23 µM	60.3 µM	21 µM	47.9 µM
CC(=O)N[C@@H]1C(O)CN2C(=O)C(=O)O[C@H](C(O)CO)[C@@H]12 (stereo not given in full)		> 100 µM		> 100 µM		> 100 µM		> 100 µM		> 100 µM				> 100 µM				> 100 µM		> 100 µM
CCCCCCCCCCCCCCN				> 100 µM		> 100 µM		> 100 µM		> 100 µM		> 100 µM		> 100 µM		> 100 µM		> 100 µM		> 100 µM
O=C(c1ccc2ccccc2c1)c1c(C(F)(F)F)n([O-])c2cc(F)c(F)cc2[n+]1=O	1.02 µM	2.68 µM	2.01 µM	4.4 µM	3.36 µM	19.5 µM			1.74 µM	3.23 µM			1.84 µM	3.46 µM	2.75 µM	6.62 µM	5.02 µM	16.8 µM	1.13 µM	2.65 µM
O=c1[nH]c(=O)n([C@@H]2C[C@H](CO)[C@H](O)C2)cc1/C=C/Br		> 100 µM		> 100 µM		> 100 µM		> 100 µM		> 100 µM				> 100 µM		> 100 µM		> 100 µM		> 100 µM
COc1ccc(C2SCC(=O)N2NC(=O)C(O)c2ccccc2)cc1OC (stereo not given)	> 100 µM	> 100 µM	> 100 µM	> 100 µM	> 100 µM	> 100 µM	> 100 µM	> 100 µM	> 100 µM	> 100 µM	> 100 µM	> 100 µM	> 100 µM	> 100 µM	> 100 µM	> 100 µM	> 100 µM	> 100 µM		
O=C(Nc1cccc([N+](=O)[O-])c1)C(=O)C(C(=O)c1ccccc1-c1ccccc1)C1OC(=O)c2ccccc21 (stereo not given)		51.8 µM		39.5 µM		75.8 µM		73.6 µM		38.9 µM				32.8 µM		45.7 µM		33.9 µM		34.5 µM
COC1=CC(=O)C2C(C1=O)[C@@H]1c3ccccc3C[C@H]21 (stereo not given in full)		> 100 µM		> 100 µM		> 100 µM		> 100 µM		> 100 µM				> 100 µM		> 100 µM		> 100 µM		> 100 µM
CC[C@@]1(O)C[C@H](OC2CC(N(C)C)C(OC3CC(O)C(OC4CCC(=O)C(C)O4)C(C)O3)C(C)O2)c2c(cc3c(c2O)C(=O)c2c(O)cccc2C3=O)[C@H]1C(=O)OC (stereo not given in full)				0.22 µM and 0.457 µM		0.371 µM and 2.79 µM				0.25 µM and 0.476 µM				0.129 µM and 0.161 µM		0.0491 µM and 0.115 µM		0.139 µM and 0.504 µM		0.0991 µM and 0.128 µM
O=C(/C=C/C12c3ccccc3C(c3ccccc31)C1C(=O)N(c3ccccc3)C(=O)C12)c1ccccc1 (stereo not given)			1.91 µM	5.02 µM	8.56 µM	> 100 µM	2.74 µM	> 100 µM	2.89 µM	> 100 µM	2.53 µM	> 100 µM	1.26 µM	3.75 µM	1.66 µM	4.94 µM	3.23 µM	14.6 µM		
Cn1nc(-c2ccccc2)c(C(=O)/C=C/c2ccc(F)cc2)c(N2CCCCC2)c1=O		19.1 µM				37 µM		45.3 µM		18 µM		> 100 µM		20 µM		30 µM				
COC[C@@H](N=CN1CCc2cc(OC)c(OC)cc2[C@@H]1C)C(C)(C)C		> 100 µM				> 100 µM		> 100 µM		> 100 µM		> 100 µM		> 100 µM		> 100 µM		> 100 µM		> 100 µM
CS(=O)(=O)OCCN1CCN(C(=O)c2cccc3c(Nc4ccc(S(=O)(=O)N=C(N)N)cc4)c4ccccc4nc23)CC1		> 100 µM		> 100 µM		> 100 µM				> 100 µM		> 100 µM		> 100 µM		> 100 µM		> 100 µM		> 100 µM
COc1cc(/C=C\c2ccc(C)cc2)cc(OC)c1OC				> 91.5 µM	< 0.0136 µM	> 63.3 µM		> 100 µM		25.2 µM		> 69 µM	0.0233 µM	4.13 µM				34.1 µM		
O=C(/C=C/c1ccccc1)CC1OC(=O)c2ccccc21 (stereo not given)		> 100 µM		> 100 µM		> 100 µM		> 100 µM		> 100 µM				> 100 µM		66.5 µM		> 100 µM		> 100 µM
O=Nc1c(-c2c(O)[nH]c3ccc([N+](=O)[O-])cc23)[nH]c2ccc(O)cc12			1.65 µM	51.1 µM	0.474 µM	> 100 µM	0.385 µM	> 100 µM	0.319 µM	> 100 µM	0.366 µM	> 100 µM	2.78 µM	> 29.1 µM	0.211 µM	0.439 µM	0.524 µM	> 33.6 µM	0.781 µM	45.3 µM
COc1cc(/C=C2\CCC/C(=C\c3cc(OC)c(O)c(OC)c3)C2=O)cc(OC)c1O	2.05 µM	3.46 µM and 4.97 µM	5.22 µM	7.4 µM and 63.3 µM		> 100 µM		75 µM and > 100 µM	3.9 µM		4.37 µM	75 µM and > 100 µM				5.2 µM	5.93 µM			4.38 µM and 3.3 µM
COc1ccc(NC(=O)C(=O)Cc2nc3ccc([N+](=O)[O-])cc3[nH]c2=O)c(OC)c1		> 100 µM		> 100 µM				> 100 µM		> 100 µM				> 100 µM		> 100 µM				> 100 µM
